Assay results as given in patent US20030113330A1, “Methods for treating pulmonary fibrosis” (priority 1999, published 2003).
“Also recorded” adds a separate entry of the source. Where a SMILES comes first, the peptide text is derived from it. The star is where a group is joined. Cbz = O=C(OCc1ccccc1)*; CH2F = FC*

What was measured:
[1] = test system: primary rat AEC; test: Fas ligand-induced apoptosis of primary rat alveolar epithelial cells; assay type: cell-based; details: lisinopril 500 ng/ml; for inhibition of Fas ligand-induced apoptosis of primary rat AEC (words): captopril, caspase inhibitors 60 uM
Description: (§1) Lung Cell Isolation and Detection of Apoptosis In Vitro. Primary alveolar epithelial cells (AEC) were isolated from adult male Wistar rats as described above. The primary cells were studied at day two of culture, a time at which they are type II cell-like by accepted morphologic and biochemical criteria, see Paine et al., Am. J. Physiol. […] All cells were seeded in 24-well or 6-well chambers, and all experiments were conducted at subconfluent densities of 80-90% in serum-free Ham's F12 medium. Test reagents were diluted with Ham's F12 medium and were applied for 20 hours at 37° C. in a 5% CO2 incubator.
Detection of apoptotic cells with propidium iodide (PI) was conducted as described above, following digestion of ethanol-fixed cells with DNAse-free RNAse in PBS containing 5 ug/ml PI.
Expression of FAS by alveolar epithelial cells is observed during bleomycin-induced fibrogenesis in mice. See Hagimoto, et al., Am. J. Respir. Cell Mol. Biol. 16:91-101 (1997). […] Apoptosis was detected by quantitation of fragmented nuclei (see above).
Cell Culture and Detection of Apoptosis. The human lung adenocarcinoma cell line A549 was obtained from American Type Culture Collection and cultured in Ham's F12 medium supplemented with 10% fetal bovine serum (FBS). Primary alveolar epithelial cells were isolated from adult male Wistar rats as described earlier (Uhal, B. D., I. Joshi, A. True, S. Mundle, A. Raza, A. Pardo and M. Selman. Fibroblasts isolated after fibrotic lung injury induce apoptosis of alveolar epithelial cells in vitro. Am. J. Physiol. 269:L819-L828, 1995); Wang, R., A. Zagariya, 0. Ibarra-Sunga, C. […] Am. J. Physiol. 276:L885-L889 (1999)). […] All cells were seeded in 24-well or 6-well chambers, and all experiments were conducted at subconfluent densities of 80-90% in serum-free Ham's F12 medium. Test reagents were diluted with serum-free Ham's F12 medium and were applied under serum-free conditions for 20 hours at 37C. in a 5% CO2 incubator. Detection of apoptotic cells with propidium iodide (PI) was conducted as described above Am. J. Physiol. 275:L1013-1017 (1998); Uhal et al., following digestion of ethanol-fixed cells with DNAse-free RNAse in PBS containing 5 μg/ml PI. In all assays, detached cells were retained by centrifugation of the culture vessels during fixation with 70% ethanol, or by retention of culture media and recovery by centrifugation before assay.
Apoptosis was detected by nuclear fragmentation as described above.

[2] = test system: A549 cells; test: Angiotensin II-induced apoptosis in A549 cells (nuclear fragmentation, PI); assay type: cell-based, human; details: saralasin 50 ug/ml
Description: Cell Culture. […] J. Physiol. Suppl. (Oct.) 261:110-117 (1991) and Uhal et al., Am. J. Physiol. 269:[…]-[…] (1995). […] J. Physiol. 272:[…]-[…] (1997). […] J. Physiol. Suppl. (October) 261:110-117 (1991). […] Detection of Apoptosis. […] J. Physiol. […] Assay of Annexin V binding by flow cytometry was performed essentially as described for human lung fibroblasts in Uhal, et al., Am. J. Physiol. 275:[…]-[…] (1998) after trypsinization of cells from culture vessels. Assay of Caspase-3 activity was performed on viable suspension cultures as reported in Uhal, et al., Am. J. Physiol. 275:[…]-1017 (1998). […] For microscopy, cells were cultured on glass cover slips, incubated with test reagents and fixed with 70% ethanol. The fixed cells were immunolabeled overnight at 4° C. with monoclonal antibodies to cytokeratins 7 and 19 (Chemicon International, Temecula, Calif.), and then for one hour at 37° C. with anti-mouse IgG-rhodamine and DNAse-free RNAse (Boehringer Mannheim, Indianapolis, Ind.) The cover slips were then rinsed in distilled water three times and mounted under Fluoromount Solution (Southern Biotechnology Associates, Birmingham, Ala.) containing 5 ug/ml propidium iodide. Photomicroscopy was performed as described in Uhal, et al., Am. J. Physiol. 275:[…]-1017 (1998). […] The absolute values for basal, i.e., 0.0 dose, apoptosis were: A549 serum-free, 2.29±0.33%; […] AEC serum-free: 1.87±0.41%; and AEC+FBS: 1.97±0.37%.

[3] = test system: A549 cells; details: for inhibition of amiodarone-induced apoptosis: captopril 500 ng/ml, saralasin 50 ug/ml, Losartan 5 pg/ml
Description: as §1, with “The human lung adenocarcinoma cell line A549 (ATCC) was cultured in Ham's F12 medium supplemented with 10% fetal bovine serum (FBS).” for “Lung Cell Isolation and Detection of Apoptosis In Vitro.”, “cells” for “cells (AEC)”, “rats.” for “rats as described above.”, “criteria.” for “criteria, see Paine et al., Am. J. Physiol.”, “37C.” for “37° C.”
(§2) Apoptotic cells were detected using propidium iodide (PI) following digestion of ethanol-fixed cells with DNAse-free RNAse in PBS containing 5 ug/ml PI. […] In replicate culture vessels, necrosis was detected as the loss of exclusion of PI after application of the vital dye directly to the cell culture medium at 5 ug/ml final concentration. Red fluorescent (PI-POSITIVE) cells (>570 nm) were scored over the subsequent hour as a percentage of the total cells in any given field. A minimum of 4 separate fields were scored in each of three separate culture vessels per experiment condition; all experiments were performed at least twice and the data were compiled. Although all necrotic cells are PI-positive, some apoptotic cells may also take up the dye but these comprise a minor fraction of the total dead cell population.
(§3) In all assays, detached cells were retained by centrifugation of the culture vessel at 300×g for 10 minutes with a centrifuge rotor designed for culture plates. For detection of necrosis (dye exclusion of PI), the PI was added directly to the cell culture medium immediately before centrifugation of the culture vessel. For detection of apoptosis, ethanol was added directly to the cell culture medium to a final concentration of 70% immediately before the centrifugation. Afterward, the ethanol was carefully removed and the total cell population (attached plus sedimented detached cells) were stained with PI as described above.

[4] = test system: primary rat AEC; details: for inhibition of amiodarone-induced apoptosis: captopril 500 ng/ml, saralasin 50 ug/ml, Losartan 5 pg/ml, amiodarone 2.5 ug/ml for chelerythrine, orthovanadate
Description: as §1, with “The human lung adenocarcinoma cell line A549 (ATCC) was cultured in Ham's F12 medium supplemented with 10% fetal bovine serum (FBS).” for “Lung Cell Isolation and Detection of Apoptosis In Vitro.”, “cells” for “cells (AEC)”, “rats.” for “rats as described above.”, “criteria.” for “criteria, see Paine et al., Am. J. Physiol.”, “37C.” for “37° C.”
as §2, §3

Compound | inhibition of Fas ligand-induced apoptosis of primary rat AEC (words) [1] | inhibition of ANGII-induced apoptosis of A549 cells [2] | inhibition of amiodarone-induced apoptosis [3] | inhibition of amiodarone-induced apoptosis [4] | other results
CCc1nc2c(C)cc(C)nc2n1Cc1ccc(-c2ccccc2-c2nn[nH]n2)cc1 [L158809] | could block | could block | – | – | –
COc1ccc2c(c1OCc1ccccc1)C[C@@H](C(=O)O)N(C(=O)C(c1ccccc1)c1ccccc1)C2 [PD126055] | unable to significantly inhibit | unable to significantly inhibit | – | – | –
COC(=O)C[C@H](NC(=O)[C@H](C)NC(=O)[C@@H](NC(=O)OCc1ccccc1)C(C)C)C(=O)CF [ZVAD-fmk, N-benzylcarboxy-Val-Ala-Asp-[O-Me]-CH2F] (Cbz-Val-Ala-Asp(OMe)-CH2F) | comparable efficacy to inhibit apoptosis | – | – | – | inhibition of Fas ligand-induced apoptosis of primary rat AEC (words) ([1]; listed as ZVADfmk): abrogate; inhibition of apoptosis in response to amiodarone ([3]; A549): 81%; inhibition of apoptosis in response to amiodarone ([4]; primary rat AEC): 97%
C[C@H](CS)C(=O)N1CCC[C@H]1C(=O)O [captopril] | comparable efficacy to inhibit apoptosis; also recorded: blocked | – | inhibited | inhibited | –
NCCCC[C@H](N[C@@H](CCc1ccccc1)C(=O)O)C(=O)N1CCC[C@H]1C(=O)O [lisinopril] | blocked | – | – | – | inhibition at 0.5 µg/mL ([1]; Rattus norvegicus, Epithelial cell, read-out: inhibition of FASL-induced apoptosis, FASL 25 ng/ml, saralasin 5 mg/ml): 87%
CNCC(=O)N[C@@H](CCCN=C(N)N)C(=O)N[C@H](C(=O)N[C@@H](Cc1ccc(O)cc1)C(=O)N[C@H](C(=O)N[C@@H](Cc1cnc[nH]1)C(=O)N1CCC[C@H]1C(=O)N[C@@H](C)C(=O)O)C(C)C)C(C)C [saralasin] | blocked | completely inhibited | inhibited | inhibited | inhibition of FASL-induced apoptosis ([1]; FASL 25 ng/ml, saralasin 5 mg/ml): 92%
